Data as given in patent publication US10449183B2, “Methods for inhibiting preterm labor and uterine contractility disorders and preventing cervical ripening” (DIGNITY HEALTH, priority 2010, dated 2019).
“Also recorded” adds a separate entry of the source. Read-outs that look alike come from different tables or passages of the source.

Key:
human myometrium = assay: Human myometrial contractility in vitro (organ chamber / muscle bath); type: cell-based
Text: The inventors tested whether a soluble form of progesterone would inhibit human myometrial contractility in vitro (FIG. 7). FIG. 7 is a schematic drawing of the muscle bath that is used to measure uterine contractility in vitro. The system consists of a water jacketed chamber to maintain temperature at 37 degrees and an inner chamber where the tissue is suspended in Krebs'-Ringer solution and bubbled with air. The tissue is connected to a force transducer and the signals from the transducer are amplified, stored and analyzed by a data acquisition system. The inventors examined the direct effects of various tocolytics on uterine contractility with and without progesterone, as it was possible that a tocolytic used with progesterone would produce additive, synergistic or antagonistic action on contractility.

[1] = Plasma progesterone levels in pregnant rats after various treatments; type: in vivo
Protocol: FIG. 6 depicts plasma levels of progesterone following various treatments. Plasma progesterone (P4) levels in pregnant rats at day 18 and 21 days of gestation after treatment with P4 vaginal gel (15 mg bid), P4 injections (4 mg subcutaneous daily), topical P4 in fish oil (15 mg bid) and controls (Ctr) treated with vehicles. FIG. 24 depicts pharmokinetic data related to plasma serum levels after topical delivery in rats following various treatments on day 19 of gestation (single treatment only).

[2] = cited from earlier work
cervix of pregnant rats = assay: Cervical ripening assessed in vivo by collagen light-induced fluorescence (LIF) with the collascope; design: species or system Sprague-Dawley rats
Text: Nonpregnant and timed-pregnant Sprague-Dawley rats (200-250 g) from Charles-River Laboratories (Wilmington, Mass., USA) were delivered to animal care facilities on day 12 of gestation (day 1 being the day when a sperm plug was observed). The animals were housed separately, with free access to food and water and maintained on a constant 12-hour light-dark cycle. Control pregnant rats were spontaneously delivering on day 22 and 23 of gestation. For the measurements with the collascope the animals were anaesthetized (interperitoneal (i.p). injection) with a combination of xylazine (Gemini, Burns Veterinary Supply Inc, Rockville Center, N.Y., USA) and ketamine HCl (Ketaset; Fort Dodge Laboratories Inc, Fort Dodge, Iowa, USA). The animals were randomly allocated to one of the groups and sacrificed by carbon dioxide inhalation on day 3, 5, 7 and 10 postpartum or on day 25 of pregnancy in the groups with delayed delivery. All procedures were approved by the Animal Care and Use Committee of the St. Joseph's Hospital and Medical Center in Phoenix.
Prior to any treatment LIF measurements were made in control rats throughout pregnancy and postpartum to estimate the LIF profile during gestation (see FIG. 1). Pregnant rats (N=6/group) were treated (see FIG. 2), when not otherwise mentioned (see FIG. 3), from day 13 of pregnancy until delivery. Single daily treatments were performed at 8 a.m. and twice a day treatments at 8 a.m. and 8 p.m. All single injections (4 mg P4, 10 mg 17P, 2 mg promegestone (R5020)) were by the subcutaneous route (s.c.) in sesame oil (0.2 ml), which was also used for the controls. Vaginal gels were applied twice a day with a blunt ball-top needle deep into the vagina. Crinone was used for the P4 vaginal group (equivalent volumes of Crinone were used for 2-15 mg P4/treatment), all data presented show the results of the highest dose (total daily dose of 30 mg P4=⅓ of a applicator of 8% Crinone that contains 90 mg P4). For the vaginal promegestone (R5020) group micronized promegestone (R5020) (1 mg/treatment) was mixed into 0.18 ml of Replens. The control rats for the vaginal groups were treated with Replens (0.18 ml/treatment). For oral P4 treatments (15 mg, bid, vehicle sesame oil or H2O, volume 1 ml) gavage was used. For topical P4 treatment (15 mg, bid, P4 in 1 ml sesame oil, fish oil or in Replens) the drug was applied on the back of animals that were shaved on day 13, 17 and 21. In some animals (N=6) RU-486 (3 mg in 0.2 ml sesame oil) was injected subcutaneously once on day 16 of gestation.
The amount of cervical collagen was evaluated in vivo (only in group subcutaneously P4, vaginal P4, subcutaneously 17P, vaginal promegestone (R5020), subcutaneously RU-486) by measurement of the auto-fluorescent properties of cross-linked collagen with a new prototype of an instrument, termed collascope (Reproductive Research Technologies, Houston, Tex., USA), as used previously with an earlier prototype.
After insertion of a small speculum into the vagina of the anesthetized animal, the optical probe of the collascope was placed on the surface of the exocervix. […] The exposure time for excitation was 100 msec. The average of 20 measurements of the detected fluorescent intensity (photon count) at 390 nm was used for each animal at any given time. Measurements of cervical light-induced fluorescence (LIF) were performed on nonpregnant animals once and in pregnant animals every other day starting at day 13 of gestation until delivery and on postpartum day 3 and/or postpartum day 5 (see FIGS. 2 and 3), and for some animals also on postpartum days 7 and 10 (see FIGS. 1 and 3).
The cervical LIFs obtained at different times of gestation (FIG. 1) were compared using one-way analysis of variance (ANOVA) and multiple pairwise comparison procedures (Holm-Sidak). […]

myometrium = conditions: P4 at concentrations equivalent to those present in the placenta and uterus; cited from earlier work
[3] = single treatment only on day 19 of gestation

- persistence of raised plasma levels following administration ([1]; single topical treatment on day 19 of gestation): persist for 1, 2, or more days
- plasma levels after topical delivery [1, 3]: increase markedly
- plasma levels after topical delivery compared with subcutaneous injection [1, 3]: even higher than subcutaneous injection
Structure (SMILES): CC(=O)[C@H]1CC[C@H]2[C@@H]3CCC4=CC(=O)CC[C@]4(C)[C@H]3CC[C@]12C [P4, progesterone]
- effect on human myometrial contractions (human myometrium; 10^−4M progesterone): inhibited myometrial contractions
- contractile inhibition of the combination (human myometrium; P4 (10^-5 M) with indomethacin (IND), term, not in labor): increase contractile inhibition, by additive or synergistic actions
- contractile inhibition of the combination (human myometrium; P4 (10^-5 M) with nifedipine (Nife), term, not in labor): increase contractile inhibition, by additive or synergistic actions
- effect on pinacidil inhibition of contractility (human myometrium; P4 (10^−5M) with pinacidil (10^−6.5M), term, not in labor): decreases pinacidil inhibition of contractility
- effect on myometrial contractility (human myometrium; P4 soluble and crystalline in ETOH): inhibits myometrial contractility
- plasma circulation levels of progesterone, topical compared to vaginal or subcutaneous injection ([1]; day 21, topical P4 in fish oil 15 mg bid vs vaginal gel 15 mg bid or 4 mg s.c. daily): highly effective in increasing plasma circulation levels of progesterone
- half life ([2]; background statement): roughly 32 hours
- half life ([2]; statement under advantages): about 30 minutes
- cervical LIF, day 25 (delayed delivery) in P4 injection group compared to control animals at day 21 (cervix of pregnant rats; P4 4 mg s.c. daily from day 13): no difference (P<0.05)
- cervical LIF / cervical ripening compared with vehicle controls (cervix of pregnant rats; P4 4 mg s.c. daily in sesame oil from day 13 of pregnancy): cervix is rigid; also recorded: significantly (P<0.05) higher; also recorded: longest effect on delaying cervical ripening; also recorded: also prevents further ripening on day 21; also recorded: can only delay, but not completely inhibit cervical ripening; also recorded: delayed but not entirely blocked during the final days of gestation
- cervical LIF / cervical ripening compared with vehicle controls (cervix of pregnant rats; vaginal P4 15 mg bid (Crinone) from day 13): no significant differences (P>0.05); also recorded: no effect on cervical ripening; also recorded: no significant differences are observed at any time
- spontaneous myometrial contractility (myometrium): inhibits spontaneous myometrial contractility
